{
  "source": "patent US20120156146A1",
  "about": "“Compositions and Methods for Improving the Appearance of Facial Texture” (priority 2010, published 2012)",
  "key": {"[1]": {"system": "textured facial skin (upper cheek area)", "assay": "In vivo facial texture test (Texture Area Fraction, split face, vehicle controlled)", "set-up": "species or system human", "settings": "vehicle+5% Hexyldecanol, 0.5 g per side of face twice daily, topical, 8 weeks, 330 subjects", "description": "A 9 week in vivo study was conducted using a round robin, vehicle controlled, split face design including a 1 week normalization period with 330 subjects.\nTreatment Regimen—The regimen begins with a one week washout period. […]\nImages of the facial treatment sites are captured at baseline (week 0), and after 4 and 8 weeks of treatment and analyzed for changes to facial texture. […]\nThe region of interest (ROI), in this case the upper cheek area, was marked manually based on 12 predefined facial landmarks around the cheek—for example, corners of the eye, bridge of the nose, corners of the mouth. The degree of textured skin in the ROI were quantified objectively using image analysis algorithms based on an Optimus software platform, which automatically locates each surface feature and quantifies the total number, length and area of facial features shorter than 5 mm and less than 0.16 mm wide, known magnification used to convert pixel data to actual length and area data. […]"}, "[2]": {"system": "HAS-2 gene (Hyaluronic Acid Synthase-2 gene)", "assay": "Hyaluronic Acid (HA) Synthase expression, GeneChip microarray in keratinocyte culture", "type": "cell-based", "settings": "human telomerized keratinocytes, 10 micro molar, 6 hours exposure, six Affymetrix GeneChips, p-value=0.0366", "description": "Individual experiments (referred to as batches) are generally comprised of 60 Affymetrix GeneChips® (referred to as “instances”) containing 6 vehicle control samples, 2 positive control samples and 52 individual test material samples. Duplication of test materials is performed across batches. In vitro testing is performed in 6-well plates to provide sufficient RNA for GeneChip® analysis (2-4 ug total RNA yield/well). Human telomerized keratinocytes are grown in EpiLife® media with 1× Human Keratinocyte Growth Supplement (Invitrogen) on collagen I coated cell culture flasks and plates (Becton Dickinson). Cells are seeded into 6-well plates at 20,000 cells/cm2 24 hours before chemical exposure. At t=−24 hours cells are trypsinized from T-75 flasks and plated into 6-well plates in basal growth medium. At t=0 media is removed and replaced with the appropriate dosing solution as per the experimental design. Dosing solutions are prepared the previous day in sterile 4 ml Falcon snap cap tubes. After 6 hours of chemical exposure cells are viewed and imaged. Cells are then lysed with 350 ul/well of RLT buffer containing β-mercaptoethanol (Qiagen), transferred to a 96-well plate, and stored at −20° C. […]\nData quality was determined using a variety of statistical measures, including t-tests, scatter biplots, and principal components analysis, depending upon the source and character of the data. […]"}},
  "data": [
    {"smiles": "CCCCCCCCC(CO)CCCCCC", "note": "(centres unmarked) [Hexyldecanol, 2-hexyldecan-1-ol]", "values": [
      {"measurement": "Texture Area Fraction reduction versus vehicle control", "setting": "[1]", "result": "significantly (p<=0.10) reducing Texture Area Fraction better than the control"},
      {"measurement": "average fold change of transcriptional expression level of HAS-2 probe set IDs", "setting": "[2]", "result": 1.336, "unit": "fold change"}
    ]}
  ]
}
